Tested on: rabbits
Test: Rabbit pyrogenicity test (surrogate measure of incorporation into liposomes)
Type: in vivo
Details: free (non-liposomal) CRX-601
Protocol: The tests were performed at Pacific Biolabs (Hercules, Calif.) as per their SOP 16E-02.

With `CCCCCCCCCCC[C@H](CC(=O)N[C@H]1[C@H](OC[C@H](NC(=O)C[C@@H](CCCCCCCCCCC)OCCCCCCCCCC)C(=O)O)O[C@H](CO)[C@@H](OP(=O)(O)O)[C@@H]1OC(=O)C[C@@H](CCCCCCCCCCC)OCCCCCCCCCC)OCCCCCCCCCC` [CRX-601] the max non-pyrogenic dose was 0.0025 µg/kg.

Reference: patent US20170071967A1, “IMMUNOGENIC LIPOSOMAL FORMULATION” (GlaxoSmithKline Biologicals, SA, priority 2014, published 2017)
